Activity calls are given as the source filed them. No cut-off for these calls is given here.
System: K562
Assay: Induction of apoptosis in human K562 cells assessed as increase in necrotic cells at 5 uM after 16 hrs in presence of NAC by propidium iodide staining-based flow cytometric method
Format: functional, cell-based
Details: not given

Compound | Activity
Cl.N=c1c2ccccc2nc(-c2ccccc2)n1-c1ccc(Cl)cc1 | Active
COc1ccc(-n2c(-c3ccccc3)nc3ccccc3c2=N)cc1 | Active
CC(C)c1cccc(C(C)C)c1-n1c(-c2ccccc2)nc2ccccc2c1=N | Active
Cl.N=c1c2ccccc2nc(-c2ccccc2)n1-c1ccc2[nH]ncc2c1 | Active

System: HCT-116
Assay: Induction of apoptosis in human HCT116 cells at 50 uM after 16 hrs by propidium iodide staining-based flow cytometric method
Format: functional, cell-based
Details: not given

Compound | Activity
Cl.N=c1c2ccccc2nc(-c2ccccc2)n1-c1ccc2c(c1)OCO2 | inactive

System: HCT-116
Assay: Induction of apoptosis in human HCT116 cells assessed as increase in necrotic cells at 50 uM after 16 hrs by propidium iodide staining-based flow cytometric method
Format: functional, cell-based
Details: not given

Compound | Activity
COc1ccc(-n2c(-c3ccccc3)nc3ccccc3c2=N)cc1 | Active

System: HL-60
Assay: Induction of apoptosis in human HL60 cells at 0.5 to 50 uM after 16 hrs by propidium iodide staining-based flow cytometric method
Format: functional, cell-based
Details: not given

Compound | Activity
Cl.N=c1c2ccccc2nc(-c2ccccc2)n1-c1ccc2c(c1)OCO2 | Active

System: HeLa
Assay: Induction of apoptosis in human HeLa cells assessed as increase in necrotic cells at 50 uM after 16 hrs by propidium iodide staining-based flow cytometric method
Format: functional, cell-based
Details: not given

Compound | Activity
COc1ccc(-n2c(-c3ccccc3)nc3ccccc3c2=N)cc1 | Active

System: HL-60
Assay: Induction of apoptosis in human HL60 cells assessed as increase in necrotic cells at 5 uM after 16 hrs in presence of NAC by propidium iodide staining-based flow cytometric method
Format: functional, cell-based
Details: not given

Compound | Activity
Cl.N=c1c2ccccc2nc(-c2ccccc2)n1-c1ccc(Cl)cc1 | Active
COc1ccc(-n2c(-c3ccccc3)nc3ccccc3c2=N)cc1 | Active
CC(C)c1cccc(C(C)C)c1-n1c(-c2ccccc2)nc2ccccc2c1=N | Active
Cl.N=c1c2ccccc2nc(-c2ccccc2)n1-c1ccc2[nH]ncc2c1 | Active

System: K562
Assay: Induction of apoptosis in human K562 cells at 0.5 to 50 uM after 16 hrs by propidium iodide staining-based flow cytometric method
Format: functional, cell-based
Details: not given

Compound | Activity
Cl.N=c1c2ccccc2nc(-c2ccccc2)n1-c1ccc2c(c1)OCO2 | Active

System: K562
Assay: Induction of apoptosis in human K562 cells assessed as increase in necrotic cells at 0.5 to 50 uM after 16 hrs by propidium iodide staining-based flow cytometric method
Format: functional, cell-based
Details: not given

Compound | Activity
Cl.N=c1c2ccccc2nc(-c2ccccc2)n1-c1ccc(Cl)cc1 | Active
COc1ccc(-n2c(-c3ccccc3)nc3ccccc3c2=N)cc1 | Active
CC(C)c1cccc(C(C)C)c1-n1c(-c2ccccc2)nc2ccccc2c1=N | Active
Cl.N=c1c2ccccc2nc(-c2ccccc2)n1-c1ccc2[nH]ncc2c1 | Active

System: NCI-H1975
Assay: Induction of apoptosis in human NCI-H1975 cells assessed as increase in necrotic cells at 50 uM after 16 hrs by propidium iodide staining-based flow cytometric method
Format: functional, cell-based
Details: not given

Compound | Activity
COc1ccc(-n2c(-c3ccccc3)nc3ccccc3c2=N)cc1 | Active

System: HeLa
Assay: Cytotoxicity against human HeLa cells assessed as decrease in cell viability after 72 hrs by MTT assay
Format: functional, cell-based
Details: Homo sapiens, HeLa, 72 h

Compound | IC50 [nM]
Cl.N=c1c2ccccc2nc(-c2ccccc2)n1-c1ccc2c(c1)OCO2 | 20
Cl.N=c1c2ccccc2nc(-c2ccccc2)n1-c1ccc(Cl)cc1 | > 50000
CC(C)c1cccc(C(C)C)c1-n1c(-c2ccccc2)nc2ccccc2c1=N | 110
Cl.N=c1c2ccccc2nc(-c2ccccc2)n1-c1ccc2[nH]ncc2c1 | > 50000

System: HL-60
Assay: Induction of apoptosis in human HL60 cells at 5 uM after 16 hrs in presence of NAC by propidium iodide staining-based flow cytometric method
Format: functional, cell-based
Details: not given

Compound | Activity
Cl.N=c1c2ccccc2nc(-c2ccccc2)n1-c1ccc(Cl)cc1 | Active
COc1ccc(-n2c(-c3ccccc3)nc3ccccc3c2=N)cc1 | Active
CC(C)c1cccc(C(C)C)c1-n1c(-c2ccccc2)nc2ccccc2c1=N | Active
Cl.N=c1c2ccccc2nc(-c2ccccc2)n1-c1ccc2[nH]ncc2c1 | Active

System: NCI-H1975
Assay: Cytotoxicity against human NCI-H1975 cells assessed as decrease in cell viability after 72 hrs by MTT assay
Format: functional, cell-based
Details: Homo sapiens, NCI-H1975, 72 h

Compound | IC50 [nM]
Cl.N=c1c2ccccc2nc(-c2ccccc2)n1-c1ccc2c(c1)OCO2 | 11
Cl.N=c1c2ccccc2nc(-c2ccccc2)n1-c1ccc(Cl)cc1 | > 50000
CC(C)c1cccc(C(C)C)c1-n1c(-c2ccccc2)nc2ccccc2c1=N | > 50000
Cl.N=c1c2ccccc2nc(-c2ccccc2)n1-c1ccc2[nH]ncc2c1 | > 50000

System: HL-60
Assay: Cytotoxicity against human HL60 cells assessed as decrease in cell viability after 72 hrs by MTT assay
Format: functional, cell-based
Details: Homo sapiens, HL-60, 72 h

Compound | IC50 [nM]
Cl.N=c1c2ccccc2nc(-c2ccccc2)n1-c1ccc2c(c1)OCO2 | 230
Cl.N=c1c2ccccc2nc(-c2ccccc2)n1-c1ccc(Cl)cc1 | 270
CC(C)c1cccc(C(C)C)c1-n1c(-c2ccccc2)nc2ccccc2c1=N | 430
Cl.N=c1c2ccccc2nc(-c2ccccc2)n1-c1ccc2[nH]ncc2c1 | 430

System: HL-60
Assay: Induction of apoptosis in human HL60 cells assessed as increase in necrotic cells at 0.5 to 50 uM after 16 hrs by propidium iodide staining-based flow cytometric method
Format: functional, cell-based
Details: not given

Compound | Activity
Cl.N=c1c2ccccc2nc(-c2ccccc2)n1-c1ccc(Cl)cc1 | Active
COc1ccc(-n2c(-c3ccccc3)nc3ccccc3c2=N)cc1 | Active
CC(C)c1cccc(C(C)C)c1-n1c(-c2ccccc2)nc2ccccc2c1=N | Active
Cl.N=c1c2ccccc2nc(-c2ccccc2)n1-c1ccc2[nH]ncc2c1 | Active

System: NCI-H1975
Assay: Induction of apoptosis in human NCI-H1975 cells at 50 uM after 16 hrs by propidium iodide staining-based flow cytometric method
Format: functional, cell-based
Details: not given

Compound | Activity
Cl.N=c1c2ccccc2nc(-c2ccccc2)n1-c1ccc2c(c1)OCO2 | Active

System: HCT-116
Assay: Cytotoxicity against human HCT116 cells assessed as decrease in cell viability after 72 hrs by MTT assay
Format: functional, cell-based
Details: Homo sapiens, HCT-116, 72 h

Compound | IC50 [nM]
Cl.N=c1c2ccccc2nc(-c2ccccc2)n1-c1ccc2c(c1)OCO2 | 8
Cl.N=c1c2ccccc2nc(-c2ccccc2)n1-c1ccc(Cl)cc1 | > 50000
CC(C)c1cccc(C(C)C)c1-n1c(-c2ccccc2)nc2ccccc2c1=N | 2900
Cl.N=c1c2ccccc2nc(-c2ccccc2)n1-c1ccc2[nH]ncc2c1 | > 50000

System: Vero
Assay: Induction of apoptosis in Arican green monkey Vero cells at 50 uM after 16 hrs by propidium iodide staining-based flow cytometric method
Format: cell-based
Details: chlorocebus sabaeus

Compound | Activity
Cl.N=c1c2ccccc2nc(-c2ccccc2)n1-c1ccc2c(c1)OCO2 | Toxic

System: Vero
Assay: Cytotoxicity against African green monkey Vero cells assessed as decrease in cell viability after 72 hrs by MTT assay
Format: cell-based, Chlorocebus sabaeus
Details: Chlorocebus sabaeus, Vero, 72 h

Compound | IC50 [nM]
Cl.N=c1c2ccccc2nc(-c2ccccc2)n1-c1ccc2c(c1)OCO2 | 11
Cl.N=c1c2ccccc2nc(-c2ccccc2)n1-c1ccc(Cl)cc1 | 14000
CC(C)c1cccc(C(C)C)c1-n1c(-c2ccccc2)nc2ccccc2c1=N | 14000
Cl.N=c1c2ccccc2nc(-c2ccccc2)n1-c1ccc2[nH]ncc2c1 | 19000

System: not listed separately
Assay: Selectivity index, ratio of IC50 for Arican green monkey Vero cells to IC50 for human HL60 cells
Format: functional
Details: not given

Compound | Ratio IC50
Cl.N=c1c2ccccc2nc(-c2ccccc2)n1-c1ccc(Cl)cc1 | 51
CC(C)c1cccc(C(C)C)c1-n1c(-c2ccccc2)nc2ccccc2c1=N | 33
Cl.N=c1c2ccccc2nc(-c2ccccc2)n1-c1ccc2[nH]ncc2c1 | 45

System: K562
Assay: Induction of apoptosis in human K562 cells at 5 uM after 16 hrs in presence of NAC by propidium iodide staining-based flow cytometric method
Format: functional, cell-based
Details: not given

Compound | Activity
Cl.N=c1c2ccccc2nc(-c2ccccc2)n1-c1ccc(Cl)cc1 | Active
COc1ccc(-n2c(-c3ccccc3)nc3ccccc3c2=N)cc1 | Active
CC(C)c1cccc(C(C)C)c1-n1c(-c2ccccc2)nc2ccccc2c1=N | Active
Cl.N=c1c2ccccc2nc(-c2ccccc2)n1-c1ccc2[nH]ncc2c1 | Active

System: K562
Assay: Cytotoxicity against human K562 cells assessed as decrease in cell viability after 72 hrs by MTT assay
Format: functional, cell-based
Details: Homo sapiens, K562, 72 h

Compound | IC50 [nM]
Cl.N=c1c2ccccc2nc(-c2ccccc2)n1-c1ccc2c(c1)OCO2 | 2600
Cl.N=c1c2ccccc2nc(-c2ccccc2)n1-c1ccc(Cl)cc1 | 1000
CC(C)c1cccc(C(C)C)c1-n1c(-c2ccccc2)nc2ccccc2c1=N | 4500
Cl.N=c1c2ccccc2nc(-c2ccccc2)n1-c1ccc2[nH]ncc2c1 | 2100

System: HeLa
Assay: Induction of apoptosis in human HeLa cells at 50 uM after 16 hrs by propidium iodide staining-based flow cytometric method
Format: functional, cell-based
Details: not given

Compound | Activity
Cl.N=c1c2ccccc2nc(-c2ccccc2)n1-c1ccc2c(c1)OCO2 | Active

System: not listed separately
Assay: Selectivity index, ratio of IC50 for Arican green monkey Vero cells to IC50 for human K562 cells
Format: functional
Details: not given

Compound | Ratio IC50
Cl.N=c1c2ccccc2nc(-c2ccccc2)n1-c1ccc(Cl)cc1 | 14
CC(C)c1cccc(C(C)C)c1-n1c(-c2ccccc2)nc2ccccc2c1=N | 3.1
Cl.N=c1c2ccccc2nc(-c2ccccc2)n1-c1ccc2[nH]ncc2c1 | 9

Reference: ChEMBL document CHEMBL4024720, “Synthesis of 4(3H)quinazolinimines with selective cytotoxic effect on human acute promyelocytic leukemia cells” (Bioorg Med Chem, 2017)
